Measured values taken from patent US20250235531A1, “MUCOSAL ADMINISTRATION METHODS AND FORMULATIONS” (priority 2022, published 2025).

Key:
[1] = Nanoparticle zeta potential (Malvern Zetasizer); format: physicochemical; conditions: [mRNA] 0.01 mg/mL in 0.1×PBS, core LNP Compound 18, DSPC, Cholesterol, and DMG-PEG 2K
Protocol: LNPs were prepared according to Example 1. Zeta potential was measured by diluting LNPs to [mRNA]0.01 mg/mL in 0.1×PBS on a Malvern Zetasizer (Nano ZS).

[2] = system: respiratory epithelium (trachea, bronchi); experiment: LNP protein expression in rat respiratory epithelium after single intratracheal dose (anti-V5 IHC); conditions: intratracheal ~1.2 mpk, NPI-Luc mRNA, LNP core Compound 18, DSPC, Cholesterol, and DMG-PEG 2K
Protocol: (§1) Animals are anesthetized under isoflurane. The tongue is displaced and a small diameter cannula is inserted into the trachea (oropharyngeal route). The cannula tip is passed through the vocal chords, down the trachea so that the tip is very near, but not touching, the carina. Upon placement, 50 μL (mouse) or 200 μL (rat) of formulation is infused into the lungs. After 30 seconds upright, animads are released into a recovery cage and returned to their respective cages once recovered.
(§2) Trachea, lungs and for the aerosol study nasal cavities, nasopharynx and larynx are collected for analysis. Lungs are inflated with 10% NBF fixative and trachea tied off to maintain inflation. Lungs are removed en bloc with attached trachea, bronchi and lobes. […]
(§3) IHC was performed on FFPE sections using the Leica Bond RX autostainer. NPI-Luc protein expression was detected by anti-V5 tag antibody at a 1:100 dilution. V5 antibody was detected with the Bond Polymer Refine Detection kit followed by hematoxylin and bluing reagent counterstain. […] Trachea, lung and/or nasal cavity images were analyzed to capture total tracheal, bronchial or nasal epithelial cells and data expressed when appropriate as % V5 positive epithelial cells per total epithelial cells per animal. […]

healthy HBE cells = experiment: LNP cellular uptake and protein expression in healthy HBE cells; format: cell-based, human; conditions: NPI-Luc mRNA, LNP core Compound 18, DSPC, Cholesterol, and DMG-PEG 2K
Protocol: NP-Luc is a dual read reporter made by adding a 5×V5 tag and a C-myc nuclear localization sequence at the N-terminus of Firefly Luciferase to enhance the signal to noise ratio. Protein expression can be detected using OneGLo assays with luminescence readout or by immunofluorescence with anti-V antibodies. LNP cellular uptake and protein expression was evaluated according to the procedure outlined in Example 5.

[3] = system: respiratory epithelium (trachea, bronchi); experiment: LNP protein expression in mouse respiratory epithelium after single intratracheal dose (anti-V5 IHC); conditions: intratracheal ~0.7 mpk, NPI-Luc mRNA, LNP core Compound 18, DSPC, Cholesterol, and DMG-PEG 2K
Protocol: as §1, §2, §3

HeLa = experiment: Protein expression in human cervical cancer epithelial cell (HeLa) model, NPI-Luc mRNA LNPs; format: cell-based; conditions: LNP core Compound 18, DSPC
Protocol: NPI-Luc is a dual read reporter made by adding a 5×V5 tag and a C-myc nuclear localization sequence at the N-terminus of Firefly Luciferase to enhance the signal to noise ratio. Protein expression can be detected using OneGLo assays with luminescence readout or by immunofluorescence with anti-V5 antibodies. Protein expression was evaluated according to the procedure outlined in Example 6. The LNPs are dosed in 4 wells and the average response was reported. For the HeLa assay the luminescence read (RLU) were normalized to cell counts.

[4] = Luciferase mRNA nanoparticle biophysical data (DLS diameter and PDI, Ribogreen encapsulation); format: physicochemical; conditions: luciferase mRNA nanoparticles (IL1:DSPC:cholesterol:PEG-DMG-2K) modified with the lipid amine; for Diameter (nm) / PDI: DLS; for % Encapsulation (Ribogreen): Ribogreen assay
Protocol: Lipids are dissolved in ethanol at a concentration of 24 mg/mL and molar ratios of 49.0:11.2:39.3:0.5 (IL1:DSPC:cholesterol:PEG-DMG-2K) and mixed with the acidification buffer (45 mM acetate buffer at pH 4). The lipid solution and acidification buffer are mixed using a multi-inlet vortex mixer at a 3:7 volumetric ratio of lipid:buffer for mixer 1 and mixer 2 and a 1:3 volumetric ratio of lipid:buffer (25% ethanol) for mixer 3. After a 5 second residence time, the resulting nanoparticles are mixed with 55 mM sodium acetate at pH 5.6 at a volumetric ratio of 5:7 of nanoparticle:buffer. See Table 24 for mixing parameters. The resulting dilute nanoparticles are then buffer exchanged and concentrated using tangential flow filtration (TFF) into a final buffer containing 5 mM sodium acetate pH 5.0. Then a 70% sucrose solution in 5 mM acetate buffer at pH 5 is subsequently added.
The resulting nanoparticles at a lipid concentration of 7.33 mg/mL in 5 mM acetate (pH 5) and 75 g/L sucrose are mixed with mRNA (luciferease) at a concentration of 0.625 mg/mL in 42.5 mM sodium acetate pH 5.0, with N:P of 4.93. The nanoparticle solution and nanoparticles are mixed using a multi-inlet vortex mixer at a 3:2 volumetric ratio of nanoparticle:mRNA. Once loaded with mRNA, these intermediate nanoparticles undergo a 300 second residence time prior addition of neutralization buffer containing 120 mM TRIS pH 8.12 at a volumetric ratio of 5:1 of nanoparticle:buffer.
For HeLa studies evaluating luciferase protein expression, PEG-DMG-2K dissolved in a 20 mM TRIS buffer (pH 7.5) is added to the neutralized intermediate nanoparticle solution at a ratio of 1:6, bringing the solution to the final molar ratios of IL1:DSPC:cholesterol:PEG-DMG-2K of 48.5:11.1:38.9:1.5%. This nanoparticle formulation is then modified with lipid amines. In a typical example, nanoparticle formulation at a concentration of 0.18 mg/mL mRNA and a 0.56 mL volume is modified with lipid amine SA50 (467.2 nmol) prepared in buffer containing 20 mM IRIS, 14.3 mM sodium acetate, 32 g/L sucrose and 140 mM NaCl—pH 7.5 at a volumetric ratio of 1:1 of nanoparticle: buffer.
Resulting nanoparticle suspensions are filtered through a 0.8/0.2 μm capsule filter and filled into glass vials at an mRNA strength of about 0.1-1 mg/mL Biophysical data (Diameter and PDI from DLS measurements and % Encapsulation using Ribogreen assay) for luciferase mRNA nanoparticles with lipid amines is shown in Table 26.

Row | Compound | Zeta Potential (mV) ([1]; β-sitosterol) | Average accumulation of LNP in healthy HBE (% positive cells) (healthy HBE cells; β-sitosterol) | Average protein expression in healthy HBE (% V5 positive cells) (healthy HBE cells; β-sitosterol) | Diameter (nm) [4] | PDI [4] | % Encapsulation (Ribogreen) [4] | other results
1 | CC(C)CCC[C@@H](C)[C@H]1CC[C@H]2[C@@H]3CC=C4C[C@@H](OC(=O)N(CCCN)CCCCNCCCN)CC[C@]4(C)[C@H]3CC[C@]12C [SA3] |  |  |  |  |  |  | Zeta Potential (mV) [1]: 10.6 mV; Average % V5 positive cells/total cells ([2]; Rat Bronchi (left and right lung)): 4.95 % V5 positive cells/total cell; Average % V5 positive cells/total cells ([2]; Rat Trachea): 2.97 % V5 positive cells/total cell; Average accumulation of LNP in healthy HBE (% positive cells) (healthy HBE cells): 43.7 % positive cells; Average protein expression in healthy HBE (% V5 positive cells) (healthy HBE cells): 9.4 % V5 positive cells; Average % V5 positive cells/total cells ([3]; Mouse Bronchi (left lung)): 9.33 % V5 positive cells/total cell; Average % V5 positive cells/total cells ([3]; Mouse Trachea): 40.7 % V5 positive cells/total cell; Average protein expression per cell (RLU per cell) (HeLa; Cholesterol, and DMG-PEG 2K): 111.0 RLU per cell
2 | CC(C)CCC[C@@H](C)[C@H]1CC[C@H]2[C@@H]3CC=C4C[C@@H](OC(=O)NCCN(C)C)CC[C@]4(C)[C@H]3CC[C@]12C [SA4] |  |  |  |  |  |  | Average protein expression per cell (RLU per cell) (HeLa; Cholesterol, and Compound 428): 248.5 RLU per cell
3 | CC(C)c1ccc2c(c1)CC[C@H]1[C@](C)(CNC(=O)CCN(C)C)CCC[C@]21C [SA16] |  |  |  |  |  |  | Average protein expression per cell (RLU per cell) (HeLa; Cholesterol, and Compound 428): 14.5 RLU per cell
4 | CC(C)CCC[C@@H](C)[C@H]1CC[C@H]2[C@@H]3CC=C4C[C@@H](OC(=O)NCCNC(=N)N)CC[C@]4(C)[C@H]3CC[C@]12C [SA23] | 12.7 mV | 34.3 % positive cells | 9.1 % V5 positive cells |  |  |  | 
5 | CC(C)CCC[C@@H](C)[C@H]1CC[C@H]2[C@@H]3CC=C4C[C@@H](OC(=O)N(CCCN)CCCCN)CC[C@]4(C)[C@H]3CC[C@]12C [SA29] | 8.3 mV | 56.2 % positive cells | 12.1 % V5 positive cells |  |  |  | 
6 | CC(C)CCC[C@@H](C)[C@H]1CC[C@H]2[C@@H]3CC=C4C[C@@H](OC(=O)NCCCNCCCCN)CC[C@]4(C)[C@H]3CC[C@]12C [SA30] | 8.7 mV | 49.9 % positive cells | 11.9 % V5 positive cells |  |  |  | 
7 | CC(C)CCC[C@@H](C)[C@H]1CC[C@H]2[C@@H]3CC=C4C[C@@H](OC(=O)CCC(=O)N(CCCN)CCCCN)CC[C@]4(C)[C@H]3CC[C@]12C [SA31] | 8.6 mV | 43.2 % positive cells | 11.1 % V5 positive cells |  |  |  | 
8 | CC[C@H](CC[C@@H](C)[C@H]1CC[C@H]2[C@@H]3CC=C4C[C@@H](OC(=O)N(CCCCNCCC(C)N)CCC(C)N)CC[C@]4(C)[C@H]3CC[C@]12C)C(C)C.Cl.Cl.Cl (stereo partly drawn) [SA111, (3S,8S,9S,10R,13R,14S,17R)-17-((2R,5R)-5-ethyl-6-methylheptan-2-yl)-10,13-dimethyl-2,3,4,7,8,9,10,11,12,13,14,15,16,17-tetradecahydro-1H-cyclopenta[a]phenanthren-3-yl (3-aminobutyl)(4-((3-aminobutyl)amino)butyl)carbamate trihydrochloride] |  |  |  | 76 nm | 0.18 | 99.6% | 
9 | CC[C@H](CC[C@@H](C)[C@H]1CC[C@H]2[C@@H]3CC=C4C[C@@H](OC(=O)N(CCC5CC(N)C5)CCC5CC(N)C5)CC[C@]4(C)[C@H]3CC[C@]12C)C(C)C.Cl.Cl (stereo partly drawn) [SA186, (3S,8S,9S,10R,13R,14S,17R)-17-((2R,5R)-5-ethyl-6-methylheptan-2-yl)-10,13-dimethyl-2,3,4,7,8,9,10,11,12,13,14,15,16,17-tetradecahydro-1H-cyclopenta[a]phenanthren-3-yl bis(2-(3-aminocyclobutyl)ethyl)carbamate dihydrochloride] |  |  |  | 73 nm | 0.14 | 99.3% | 
10 | CC[C@H](CC[C@@H](C)[C@H]1CC[C@H]2[C@@H]3CC=C4C[C@@H](SSCCC(=O)N(CCC5CC(N)C5)CCC5CC(N)C5)CC[C@]4(C)[C@H]3CC[C@]12C)C(C)C.Cl.Cl (stereo partly drawn) [SA187, N,N-bis(2-(3-aminocyclobutyl)ethyl)-3-(((3S,8S,9S,10R,13R,14S,17R)-17-((2R,5R)-5-ethyl-6-methylheptan-2-yl)-10,13-dimethyl-2,3,4,7,8,9,10,11,12,13,14,15,16,17-tetradecahydro-1H-cyclopenta[a]phenanthren-3-yl)disulfaneyl)propanamide dihydrochloride] |  |  |  | 73 nm | 0.17 | 99.0% | 
11 | CC(C)CCC[C@@H](C)[C@H]1CC[C@H]2[C@@H]3CC=C4C[C@@H](OC(=O)CCCC(=O)N(CCC5CC(N)C5)CCC5CC(N)C5)CC[C@]4(C)[C@H]3CC[C@]12C.Cl.Cl (stereo partly drawn) [SA188, (3S,8S,9S,10R,13R,14S,17R)-10,13-dimethyl-17-((R)-6-methylheptan-2-yl)-2,3,4,7,8,9,10,11,12,13,14,15,16,17-tetradecahydro-1H-cyclopenta[a]phenanthren-3-yl 5-(bis(2-(3-aminocyclobutyl)ethyl)amino)-5-oxopentanoate dihydrochloride] |  |  |  | 80 nm | 0.13 | 99.6% | 
12 | CC[C@H](CC[C@@H](C)[C@H]1CC[C@H]2[C@@H]3CC=C4C[C@@H](OC(=O)N(CC56CC(N)(C5)C6)CC56CC(N)(C5)C6)CC[C@]4(C)[C@H]3CC[C@]12C)C(C)C.Cl.Cl [SA189, (3S,8S,9S,10R,13R,14S,17R)-17-((2R,5R)-5-ethyl-6-methylheptan-2-yl)-10,13-dimethyl-2,3,4,7,8,9,10,11,12,13,14,15,16,17-tetradecahydro-1H-cyclopenta[a]phenanthren-3-yl bis((3-aminobicyclo[1.1.1]pentan-1-yl)methyl)carbamate dihydrochloride] |  |  |  | 78 nm | 0.33 | 98.1% | 
